Legend:
Assay in all cases: Kinase selectivity, scanMAX Kinase assay panel (DiscoverX), % control at 1 uM
Format in all cases: binding
[1] = target: T1, scanMAX Kinase assay panel (Homo sapiens, UniProt O14965); details: AURKA; 1 uM; read-out: Percent Control (%)
T1 construct: purchased DiscoverX
T1 sequence (O14965 1-403): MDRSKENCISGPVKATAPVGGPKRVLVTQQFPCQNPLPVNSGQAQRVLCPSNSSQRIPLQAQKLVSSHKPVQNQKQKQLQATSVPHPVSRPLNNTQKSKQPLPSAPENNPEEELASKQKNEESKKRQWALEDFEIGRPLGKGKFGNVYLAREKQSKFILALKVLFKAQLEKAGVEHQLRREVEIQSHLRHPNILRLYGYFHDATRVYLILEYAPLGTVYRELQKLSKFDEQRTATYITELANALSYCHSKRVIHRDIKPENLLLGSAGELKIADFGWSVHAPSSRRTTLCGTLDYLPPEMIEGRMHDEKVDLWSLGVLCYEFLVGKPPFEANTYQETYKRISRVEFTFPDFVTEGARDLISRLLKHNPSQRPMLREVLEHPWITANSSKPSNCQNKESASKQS
How it was run: (§1)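 Each kinase was first exposed to the test compound at 1 uM in DMSO. Signal was then normalised to positive and negative controls to give % control. Finally, any enzyme showing <35% control was judged inhibited.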

[2] = target: T2, scanMAX Kinase assay panel (Homo sapiens, UniProt O60285); details: ARK5; 1 uM; read-out: Percent Control (%)
T2 construct: purchased DiscoverX
T2 sequence (O60285 1-661): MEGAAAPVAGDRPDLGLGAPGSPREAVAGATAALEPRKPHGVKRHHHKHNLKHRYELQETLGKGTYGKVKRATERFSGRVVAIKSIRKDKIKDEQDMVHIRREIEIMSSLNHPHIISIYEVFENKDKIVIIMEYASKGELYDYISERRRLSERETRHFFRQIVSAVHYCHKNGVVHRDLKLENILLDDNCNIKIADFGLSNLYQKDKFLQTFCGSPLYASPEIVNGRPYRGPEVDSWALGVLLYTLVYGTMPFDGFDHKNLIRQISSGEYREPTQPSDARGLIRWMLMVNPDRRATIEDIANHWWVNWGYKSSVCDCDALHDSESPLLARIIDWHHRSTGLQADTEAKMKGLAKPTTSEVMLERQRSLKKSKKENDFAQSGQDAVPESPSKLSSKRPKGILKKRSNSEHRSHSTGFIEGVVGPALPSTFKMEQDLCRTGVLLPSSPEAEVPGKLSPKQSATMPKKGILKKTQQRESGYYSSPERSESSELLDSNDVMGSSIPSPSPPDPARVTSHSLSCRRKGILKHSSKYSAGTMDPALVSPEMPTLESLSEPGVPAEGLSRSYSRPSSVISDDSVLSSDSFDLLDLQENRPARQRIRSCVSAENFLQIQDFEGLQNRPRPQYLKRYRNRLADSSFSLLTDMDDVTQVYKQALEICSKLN
How it was run: as §1

[3] = target: T3, scanMAX Kinase assay panel (Homo sapiens, UniProt P16234); details: PDGFRA; 1 uM; read-out: Percent Control (%)
T3 construct: purchased DiscoverX
How it was run: as §1

[4] = target: T4, scanMAX Kinase assay panel (Homo sapiens, UniProt P29317); details: EPHA2; 1 uM; read-out: Percent Control (%)
T4 construct: purchased DiscoverX
How it was run: as §1

[5] = target: T5, scanMAX Kinase assay panel (Homo sapiens, UniProt P33981); details: TTK; 1 uM; read-out: Percent Control (%)
T5 construct: purchased DiscoverX
T5 sequence (P33981 1-857): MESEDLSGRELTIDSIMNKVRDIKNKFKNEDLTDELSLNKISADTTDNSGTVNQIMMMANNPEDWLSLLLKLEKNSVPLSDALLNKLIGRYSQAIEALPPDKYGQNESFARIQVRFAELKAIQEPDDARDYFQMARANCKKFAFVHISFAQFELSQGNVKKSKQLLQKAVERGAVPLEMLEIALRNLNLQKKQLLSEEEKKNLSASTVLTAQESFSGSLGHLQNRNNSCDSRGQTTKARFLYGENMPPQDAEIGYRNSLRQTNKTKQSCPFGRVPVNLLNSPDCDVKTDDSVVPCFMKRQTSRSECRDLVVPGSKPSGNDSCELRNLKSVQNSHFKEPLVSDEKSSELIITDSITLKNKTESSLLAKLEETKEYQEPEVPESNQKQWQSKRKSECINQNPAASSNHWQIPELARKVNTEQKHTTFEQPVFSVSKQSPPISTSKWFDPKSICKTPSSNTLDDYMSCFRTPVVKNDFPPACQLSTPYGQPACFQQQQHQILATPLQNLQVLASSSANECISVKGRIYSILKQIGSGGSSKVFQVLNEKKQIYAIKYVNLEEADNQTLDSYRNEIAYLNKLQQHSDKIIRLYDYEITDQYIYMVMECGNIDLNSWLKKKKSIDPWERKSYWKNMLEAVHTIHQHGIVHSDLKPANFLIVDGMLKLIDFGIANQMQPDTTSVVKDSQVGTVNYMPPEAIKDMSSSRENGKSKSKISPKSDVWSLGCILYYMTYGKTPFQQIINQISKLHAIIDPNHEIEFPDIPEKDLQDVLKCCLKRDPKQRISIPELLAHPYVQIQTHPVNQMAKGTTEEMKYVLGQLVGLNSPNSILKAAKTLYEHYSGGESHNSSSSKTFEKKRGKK
How it was run: as §1

[6] = target: T6, scanMAX Kinase assay panel (Homo sapiens, UniProt P42336, C420R); details: PIK3CA (C420R); 1 uM; read-out: Percent Control (%)
T6 construct: purchased DiscoverX
How it was run: as §1

[7] = target: T7, scanMAX Kinase assay panel (Homo sapiens, UniProt Q9H1R3); details: MYLK2; 1 uM; read-out: Percent Control (%)
T7 construct: purchased DiscoverX
How it was run: as §1

T6 sequence (P42336 whole entry C420R): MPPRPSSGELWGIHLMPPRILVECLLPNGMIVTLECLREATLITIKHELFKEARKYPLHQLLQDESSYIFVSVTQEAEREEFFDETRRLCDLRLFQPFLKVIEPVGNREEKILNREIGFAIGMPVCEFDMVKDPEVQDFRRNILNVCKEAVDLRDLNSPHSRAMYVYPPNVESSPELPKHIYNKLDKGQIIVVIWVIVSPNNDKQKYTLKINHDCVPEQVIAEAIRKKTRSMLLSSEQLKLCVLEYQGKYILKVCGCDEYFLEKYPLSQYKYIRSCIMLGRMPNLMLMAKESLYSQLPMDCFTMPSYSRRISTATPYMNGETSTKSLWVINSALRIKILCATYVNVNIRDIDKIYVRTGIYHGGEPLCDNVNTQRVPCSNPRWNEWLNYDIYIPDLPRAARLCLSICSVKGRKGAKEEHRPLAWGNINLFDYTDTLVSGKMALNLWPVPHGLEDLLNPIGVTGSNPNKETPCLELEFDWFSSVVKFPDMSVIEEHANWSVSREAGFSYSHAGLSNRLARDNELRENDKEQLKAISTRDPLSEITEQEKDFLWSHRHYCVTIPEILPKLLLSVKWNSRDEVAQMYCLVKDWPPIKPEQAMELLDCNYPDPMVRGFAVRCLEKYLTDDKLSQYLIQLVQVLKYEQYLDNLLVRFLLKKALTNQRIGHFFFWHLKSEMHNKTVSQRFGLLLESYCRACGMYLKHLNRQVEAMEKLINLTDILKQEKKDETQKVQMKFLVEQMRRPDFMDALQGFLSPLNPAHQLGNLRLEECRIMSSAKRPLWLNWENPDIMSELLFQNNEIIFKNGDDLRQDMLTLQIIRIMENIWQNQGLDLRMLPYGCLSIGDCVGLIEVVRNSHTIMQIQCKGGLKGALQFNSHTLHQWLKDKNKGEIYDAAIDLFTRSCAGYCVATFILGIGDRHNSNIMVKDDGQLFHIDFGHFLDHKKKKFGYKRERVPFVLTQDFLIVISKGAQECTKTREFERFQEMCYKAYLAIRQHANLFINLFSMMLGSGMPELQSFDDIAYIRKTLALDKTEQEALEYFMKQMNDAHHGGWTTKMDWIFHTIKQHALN
T4 sequence (P29317 24-976): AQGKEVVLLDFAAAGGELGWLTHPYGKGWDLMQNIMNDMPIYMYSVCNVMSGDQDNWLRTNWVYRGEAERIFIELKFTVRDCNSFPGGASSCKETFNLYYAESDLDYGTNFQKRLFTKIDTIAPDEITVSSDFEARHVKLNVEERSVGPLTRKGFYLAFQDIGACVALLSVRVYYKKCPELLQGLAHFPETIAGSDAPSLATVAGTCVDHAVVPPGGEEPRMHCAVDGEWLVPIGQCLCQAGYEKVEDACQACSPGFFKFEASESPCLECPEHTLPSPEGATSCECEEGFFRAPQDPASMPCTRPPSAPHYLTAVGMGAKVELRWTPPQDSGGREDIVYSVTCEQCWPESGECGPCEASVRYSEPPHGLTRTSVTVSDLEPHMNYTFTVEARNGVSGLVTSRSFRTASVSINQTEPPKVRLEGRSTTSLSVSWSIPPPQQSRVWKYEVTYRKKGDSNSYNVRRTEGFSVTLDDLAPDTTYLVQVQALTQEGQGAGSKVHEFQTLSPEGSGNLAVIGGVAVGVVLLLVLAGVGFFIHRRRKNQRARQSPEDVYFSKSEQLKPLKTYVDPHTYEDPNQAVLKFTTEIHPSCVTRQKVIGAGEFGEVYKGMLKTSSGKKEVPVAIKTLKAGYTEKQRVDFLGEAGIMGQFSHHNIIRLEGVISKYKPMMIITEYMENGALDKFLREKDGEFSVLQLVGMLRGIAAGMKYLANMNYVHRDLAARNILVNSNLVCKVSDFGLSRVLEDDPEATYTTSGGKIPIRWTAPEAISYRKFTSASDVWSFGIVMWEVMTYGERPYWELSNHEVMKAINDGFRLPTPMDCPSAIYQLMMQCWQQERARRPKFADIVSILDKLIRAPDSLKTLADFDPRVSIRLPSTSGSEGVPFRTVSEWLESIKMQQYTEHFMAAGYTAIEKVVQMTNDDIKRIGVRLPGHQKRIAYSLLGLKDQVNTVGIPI
T7 sequence (Q9H1R3 whole entry): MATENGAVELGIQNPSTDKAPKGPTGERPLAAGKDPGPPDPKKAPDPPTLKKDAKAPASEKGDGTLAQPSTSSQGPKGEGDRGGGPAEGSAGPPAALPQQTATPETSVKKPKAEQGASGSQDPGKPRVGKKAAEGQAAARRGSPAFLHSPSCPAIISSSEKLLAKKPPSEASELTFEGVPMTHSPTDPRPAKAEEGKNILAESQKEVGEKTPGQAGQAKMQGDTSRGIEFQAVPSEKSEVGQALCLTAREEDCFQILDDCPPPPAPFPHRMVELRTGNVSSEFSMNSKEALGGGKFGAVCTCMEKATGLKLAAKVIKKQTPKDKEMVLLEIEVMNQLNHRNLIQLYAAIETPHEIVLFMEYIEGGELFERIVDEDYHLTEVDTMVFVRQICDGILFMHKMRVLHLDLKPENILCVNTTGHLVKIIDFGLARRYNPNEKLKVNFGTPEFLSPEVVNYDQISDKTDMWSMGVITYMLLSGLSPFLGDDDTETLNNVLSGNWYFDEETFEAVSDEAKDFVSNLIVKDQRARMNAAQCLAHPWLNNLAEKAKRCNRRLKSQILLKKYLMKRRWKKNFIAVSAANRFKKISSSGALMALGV
T3 sequence (P16234 24-1089): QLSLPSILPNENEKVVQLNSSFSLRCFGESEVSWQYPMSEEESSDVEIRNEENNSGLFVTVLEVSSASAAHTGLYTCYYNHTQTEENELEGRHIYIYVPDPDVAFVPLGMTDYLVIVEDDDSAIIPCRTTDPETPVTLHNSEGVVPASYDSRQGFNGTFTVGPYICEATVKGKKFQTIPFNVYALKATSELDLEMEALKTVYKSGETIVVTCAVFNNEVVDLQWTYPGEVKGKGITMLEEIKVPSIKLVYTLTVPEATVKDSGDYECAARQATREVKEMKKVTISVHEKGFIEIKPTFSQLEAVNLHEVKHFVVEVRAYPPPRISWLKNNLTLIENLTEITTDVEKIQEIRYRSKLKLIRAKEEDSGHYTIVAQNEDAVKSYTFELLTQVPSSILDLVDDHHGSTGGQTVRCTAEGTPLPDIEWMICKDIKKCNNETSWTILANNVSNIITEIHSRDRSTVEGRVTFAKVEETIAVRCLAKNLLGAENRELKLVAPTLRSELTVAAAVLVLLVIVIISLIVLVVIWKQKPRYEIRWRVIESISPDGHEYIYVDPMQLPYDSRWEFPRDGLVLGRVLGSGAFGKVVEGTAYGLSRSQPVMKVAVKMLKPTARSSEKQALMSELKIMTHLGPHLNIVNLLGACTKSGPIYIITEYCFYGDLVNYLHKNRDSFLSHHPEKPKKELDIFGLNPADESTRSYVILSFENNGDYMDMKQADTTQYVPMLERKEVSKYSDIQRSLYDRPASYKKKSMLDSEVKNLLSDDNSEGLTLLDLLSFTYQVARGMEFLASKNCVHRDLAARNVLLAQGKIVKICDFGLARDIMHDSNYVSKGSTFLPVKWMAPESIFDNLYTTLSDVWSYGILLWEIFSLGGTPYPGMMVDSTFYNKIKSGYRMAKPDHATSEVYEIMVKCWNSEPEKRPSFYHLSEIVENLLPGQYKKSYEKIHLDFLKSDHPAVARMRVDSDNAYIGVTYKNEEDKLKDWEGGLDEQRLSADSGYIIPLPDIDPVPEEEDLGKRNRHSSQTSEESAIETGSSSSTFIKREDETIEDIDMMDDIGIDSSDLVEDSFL

SMILES	remaining binding at 1 µM [1]	remaining binding at 1 µM [2]	remaining binding at 1 µM [3]	remaining binding at 1 µM [4]	remaining binding at 1 µM [5]	remaining binding at 1 µM [6]	remaining binding at 1 µM [7]
Cc1ccc(NC(=O)C2(C(=O)Nc3ccc(F)cc3)CC2)cc1C#Cc1cnc2c(Nc3cnn(C(C)C)c3)cccn12 [Example 78]	100%	94%	29%	91%	100%	100%	100%
Cc1cn(-c2cc(NC(=O)c3ccc(C)c(C#Cc4cnc5c(Nc6cnn(C)c6)cccn45)c3)cc(C(F)(F)F)c2)cn1 [Example 12, 4-methyl-N-(3-(4-methyl-1H-imidazol-1-yl)-5-(trifluoromethyl)phenyl)-3-((8-((1-methyl-1H-pyrazol-4-yl)amino)imidazo[1,2-a]pyridin-3-yl)ethynyl)benzamide]	100%	100%	4%	9%	70%	100%	40%
Cc1ccc(C(=O)Nc2ccc(CN3CCN(C)CC3)c(C(F)(F)F)c2)cc1C#Cc1cnc2c(Nc3cnn(C)c3)cccn12 [Example 1, 4-methyl-3-((8-((1-methyl-1H-pyrazol-4-yl)amino)imidazo[1,2-a]pyridin-3-yl)ethynyl)-N-(4-((4-methylpiperazin-1-yl)methyl)-3-(trifluoromethyl)phenyl)benzamide]	72%	99%	1%	2%	12%	97%	6%

Source: patent US10870647B2, “Imidazopyridine derivative, method for preparing same, and pharmaceutical composition containing same as active ingredient for preventing or treating cancer” (DAEGU-GYEONGBUK MEDICAL INNOVATION FOUNDATION, priority 2016, dated 2020)
